Measured values taken from US5279956A, “Activated protein C polypeptides and anti-peptide antibodies, diagnostic methods and systems for inhibiting activated protein C” (The Scripps Research Institute, priority 1991, dated 1994).
No end group written: not given here.

Molecular target: T1, APC (Homo sapiens, UniProt P04070)
T1 construct: begins at amino acid residue position 158 and ends at 419; The light chain is 155 amino acid residues in length; tissue Factor IX concentrate from Immuno AG, Vienna; thrombin from Enzyme Research Laboratories
Assay: Activated partial thromboplastin time (APTT) coagulation assay of APC anticoagulant activity
Assay type: biochemical
Settings: APTT assay in the presence of APC
Procedure: The effect of the synthetic peptides on APC anticoagulant activity were determined using the APTT assay in the presence of either normal citrate anticoagulated plasma (NHP) or protein S depleted plasma (PSDP). The assays were performed essentially as described. See Marlar et al., Blood, 59:1067-1072 […]; Suzuki et al., J. Biol. Chem., 258:163-168 (1983); Gruber et al., Blood, 73:639-642 (1989); Ohlin et al., Biochem., 29:644-651 (1990). NHP was purchased from George King Bio-Medical, Inc. (Overland Park, Kans.). PSDP was prepared from a normal human citrate-anticoagulated plasma pool from ten healthy donors. Protein S was immunodepleted from the NHP by immunoaffinity chromatography of NHP over an anti-protein S antibody column to form PSDP. The anti-protein S antibody column was prepared by coupling 100 mg of a monoclonal, high-affinity, calcium-independent anti-PS antibody, designated S7, to 30 ml of CNBr-activated Sepharose 4B (Pharmacia) as described in Example 2c1). Residual total protein S content in the resultant PSDP was less than 0.1% protein S as determined by quantitative immunoblotting, by solid-phase ELISA for total protein S and by electroimmunoassay.
For the APTT assay, APC was prepared as described in Example 2c2). The specific anticoagulant activity of APC was determined to be 250 Units/mg. The concentration of the APC used in the assay was initially optimized with respect to the sensitivity of the assay towards APC-induced prolongation of clotting time compared to clotting time without APC.
Once the optimal concentration of APC was determined, peptides from Table 2 were then separately admixed for a final concentration of 500 μM with 10 nM APC in 100 μl of TBS-BSA at pH 7.4 to form peptide-APC admixtures. The resulting admixtures were maintained for seven minutes at 37° C. Separate aliquots of peptides maintained under the same conditions in the absence of APC served as controls for the inhibitory effect of synthetic peptides on APC anticoagulant activity. After the maintenance period, 100 μl of NHP and 100 μl APTT-reagent Thrombosil (Ortho Diagnostics, Raritan, N.J.) were admixed into each peptide admixture and maintained for 200 seconds at 37° C. to form a pre-coagulation admixture. In some experiments, PSDP was used in the place of NHP to determine the effect of Protein S on the assay system. Coagulation was then initiated by the admixture of 100 μl of 30 mM CaCl2 in TBS prewarmed to 37° C. to each of the pre-coagulation admixtures. The time for clot formation was measured by an Electra 700 Automatic Coagulation Timer (Medical Laboratory Automation, Inc., Mount Vernon, N.Y.). Each peptide's effect was determined in duplicate.
Additional assays were performed to compare the specificity of the inhibitory effect of peptide-(390-404) on APC anticoagulant activity. Both APTT and Xa-1-stage assays were performed with peptide-(390-404) and with the same peptide synthesized in the reverse order, peptide-(404-390), at concentrations of the peptides ranging from 0 μM to 40 μM. In APTT assays performed as described above in the presence of NHP, APC was used at a concentration of 2.5 nM. For APTT assays in the presence of PSDP, APC was used at a concentration of 5 nM. […]
Once the optimal concentration of APC was determined, anti-(390-404) was separately admixed ranging in concentration from 0.0 to 240 nM with APC in 200 μl of TBS-BSA and 30 mM CaCl2 at pH 7.4 to form an anti-(390-404)-APC immunoreaction admixture pre-maintenance solution. […]

T1 sequence (P04070 212-461): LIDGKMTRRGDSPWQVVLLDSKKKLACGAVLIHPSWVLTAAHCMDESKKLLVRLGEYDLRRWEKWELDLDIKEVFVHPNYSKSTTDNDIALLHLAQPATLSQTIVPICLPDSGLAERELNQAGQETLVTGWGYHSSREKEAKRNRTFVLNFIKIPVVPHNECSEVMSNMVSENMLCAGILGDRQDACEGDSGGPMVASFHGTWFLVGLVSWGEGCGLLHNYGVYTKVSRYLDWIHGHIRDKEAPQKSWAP
T1 sequence (P04070 43-197): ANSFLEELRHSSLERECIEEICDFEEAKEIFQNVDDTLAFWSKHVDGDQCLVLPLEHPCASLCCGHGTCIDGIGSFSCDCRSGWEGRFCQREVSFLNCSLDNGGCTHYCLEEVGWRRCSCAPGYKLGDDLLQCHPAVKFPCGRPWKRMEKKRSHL

KRNRTFVLNFIKIPV-NH2 [peptide-(311-325), KRNRTFVLNFIKIPV]
IC50: 20 µM | IC90: 50 µM
